Assay results from US20060069132A1, “Azolecarboxamide herbicides” (priority 2004, published 2006).

How the values were obtained:
woolly cupgrass = test: Test C pre-/postemergence herbicide test; format: in vivo, Eriochloa villosa
Outline: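 Seeds were planted and sprayed preemergence with test chemicals in a non-phytotoxic solvent mixture containing surfactant; postemergence treatments went onto plants 2 to 18 cm tall (1- to 4-leaf stage). After 12 to 14 days in a greenhouse, injury was rated visually against untreated controls on a 0–100 scale.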

velvetleaf = test: Test A pre-/postemergence herbicide test; format: in vivo, Abutilon theophrasti
Outline: (§1)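 Seeds sown in sandy loam received a preemergence directed soil spray of compound in non-phytotoxic solvent with surfactant; postemergence plants (2–10 cm, one- to two-leaf stage) were sprayed to runoff at the same time. After ~10 days in greenhouse, injury was rated visually versus untreated controls (0 = no effect, 100 = complete control).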

redroot pigweed = test: Test A pre-/postemergence herbicide test; format: in vivo, Amaranthus retroflexus
Outline: as §1

[1] = 62 g ai/ha, preemergence, scale 0 to 100
[2] = 125 g ai/ha, scale 0 (no effect) to 100 (complete control), visual, 12 to 14 days, preemergence
[3] = 250 g ai/ha, scale 0-100, preemergence
[4] = 500 g ai/ha, scale 0 to 100 (0 no effect, 100 complete control), visual, 12 to 14 days, preemergence
[5] = Postemergence, 500 g ai/ha, 0 to 100 scale, 0 no effect, 100 complete control
[6] = Postemergence, 2000 g ai/ha, 0 to 100 scale, 0 no effect, 100 complete control
[7] = Preemergence, 2000 g ai/ha, visual rating, 0 to 100 scale (0 no effect, 100 complete control)
[8] = preemergence, 500 g ai/ha, visual injury, 0 to 100 scale (0 no effect, 100 complete control)
[9] = 125 g ai/ha, scale 0-100, preemergence
[10] = 250 g ai/ha, scale 0 to 100 (0 no effect, 100 complete control), visual, 12 to 14 days, preemergence
[11] = Postemergence, 500 g ai/ha, scale 0 to 100
[12] = Postemergence, 125 g ai/ha, scale 0 to 100, 0 no effect, 100 complete control
[13] = Postemergence, 250 g ai/ha, scale 0 to 100, 0 no effect, 100 complete control
[14] = Preemergence, 500 g ai/ha, scale 0 to 100, 0 no effect, 100 complete control
[15] = postemergence, 62 g ai/ha, scale 0 to 100
[16] = Postemergence, 250 g ai/ha, 0 to 100 scale, 0 no effect, 100 complete control
[17] = Postemergence, 1000 g ai/ha, 0 to 100 scale, 0 no effect, 100 complete control
[18] = Preemergence, 1000 g ai/ha, visual rating, 0 to 100 scale (0 no effect, 100 complete control)
[19] = preemergence, 250 g ai/ha, visual injury, 0 to 100 scale (0 no effect, 100 complete control)
[20] = Preemergence, 500 g ai/ha, visual rating, 0 to 100 scale (0 no effect, 100 complete control)
[21] = Preemergence, 2000 g ai/ha, 0 to 100 scale, 0 no effect, 100 complete control
[22] = 31 g ai/ha, preemergence, scale 0 to 100

Row | Structure (SMILES) | Plant response rating, Cupgrass, Woolly (woolly cupgrass; [1]) | Plant response rating, Cupgrass, Woolly (woolly cupgrass; [2]) | Plant response rating, Cupgrass, Woolly (woolly cupgrass; [3]) | Plant response rating, Cupgrass, Woolly (woolly cupgrass; [4]) | Plant response rating, Velvetleaf (velvetleaf; [6]) | Velvetleaf plant response rating (velvetleaf; [7]) | Plant response rating, Pigweed (redroot pigweed; [6]) | Plant response rating (0 = no effect, 100 = complete control), Cupgrass, Woolly (woolly cupgrass; 62 g ai/ha, preemergence) | Plant response rating, Cupgrass, Woolly (woolly cupgrass; [10]) | Plant response rating, Cupgrass, Woolly (woolly cupgrass; [12]) | Cupgrass, Woolly plant response rating (woolly cupgrass; [14]) | Plant response rating, Cupgrass, Woolly (woolly cupgrass; [15]) | Velvetleaf plant response rating (velvetleaf; [20]) | Plant response rating, Pigweed (redroot pigweed; [5]) | Pigweed plant response rating (redroot pigweed; [20]) | Pigweed plant response rating (redroot pigweed; [21]) | Plant response rating (0 = no effect, 100 = complete control), Cupgrass, Woolly (woolly cupgrass; 125 g ai/ha, preemergence) | other results
1 | CCNC(=O)c1ccc(F)c(NC(=O)C2CC(C(C)(C)C)=NN2CC)c1 (racemic) [Compound 269] | 10 | 40 | 60 | 85 | 30 | 100 | 50 | – | – | – | – | – | – | – | – | – | – | Velvetleaf plant response rating (velvetleaf; [5]): 25; Velvetleaf plant response rating (velvetleaf; [8]): 40; Pigweed plant response rating (redroot pigweed; [5]): 35; Pigweed plant response rating (redroot pigweed; [7]): 100; Pigweed plant response rating (redroot pigweed; [8]): 100
2 | CCNC(=O)c1cccc(NC(=O)c2cc(C(C)(C)C)nn2CC(F)(F)F)c1 [Compound 31] | – | – | – | – | – | – | – | 0 | 30 | 30 | 60 | 30 | – | – | – | – | – | Plant response rating, Cupgrass, Woolly (woolly cupgrass; [9]): 0; Cupgrass, Woolly plant response rating (woolly cupgrass; [11]): 60; Plant response rating, Cupgrass, Woolly (woolly cupgrass; [13]): 40; Velvetleaf plant response rating (velvetleaf; [16]): 20; Plant response rating, Velvetleaf (velvetleaf; [17]): 30; Velvetleaf plant response rating (velvetleaf; [18]): 35; Velvetleaf plant response rating (velvetleaf; [19]): 10; Pigweed plant response rating (redroot pigweed; [16]): 55; Plant response rating, Pigweed (redroot pigweed; [17]): 80; Pigweed plant response rating (redroot pigweed; [18]): 80; Pigweed plant response rating (redroot pigweed; [19]): 45
3 | C=Cn1nc(C(C)(C)C)cc1C(=O)Nc1cccc(C(=O)N(CC)CC)c1 [Compound 34] | – | – | – | – | 30 | – | 90 | 10 | 70 | 60 | 70 | 40 | 20 | 90 | 100 | 100 | – | Plant response rating, Cupgrass, Woolly (woolly cupgrass; [9]): 20; Cupgrass, Woolly plant response rating (woolly cupgrass; [11]): 90; Plant response rating, Cupgrass, Woolly (woolly cupgrass; [13]): 80; Plant response rating, Velvetleaf (velvetleaf; [5]): 20; Velvetleaf plant response rating (velvetleaf; [21]): 25
4 | CCNC(=O)c1cccc(NC(=O)c2cc(C(C)(C)C)nn2CCF)c1 [Compound 35] | – | 20 | – | – | 40 | – | 95 | 10 | – | 60 | – | 40 | 35 | 85 | 100 | 100 | – | Plant response rating, Cupgrass, Woolly (woolly cupgrass; [22]): 10; Plant response rating, Velvetleaf (velvetleaf; [5]): 25; Velvetleaf plant response rating (velvetleaf; [21]): 95
5 | CCn1nc(C(C)(C)C)cc1C(=O)Nc1cccc(C(=O)NC2CC2)c1 [Compound 44] | – | 10 | – | – | 65 | – | 100 | 0 | 10 | 60 | – | 50 | 20 | 100 | 100 | 100 | – | Plant response rating, Cupgrass, Woolly (woolly cupgrass; [13]): 60; Velvetleaf plant response rating (velvetleaf; [21]): 35
6 | CCn1nc(C(C)(C)C)cc1C(=O)Nc1cccc(C(=O)NCC(C)C)c1 [Compound 61] | – | 0 | – | – | 15 | 85 | 95 | 0 | 0 | – | 10 | – | 55 | 85 | 95 | 65 | – | –
7 | CCn1nc(C(C)(C)C)cc1C(=O)Nc1cccc(C(=O)NCC2CC2)c1 [Compound 62] | – | 0 | – | – | 20 | 95 | 100 | 0 | 20 | – | – | – | 70 | 100 | 100 | 100 | – | Plant response rating, Cupgrass, Woolly (woolly cupgrass; [22]): 0
8 | CCN1CCc2c(NC(=O)c3cc(C(C)(C)C)nn3CC)cccc2C1=O [Compound 63] | – | 0 | – | – | 55 | 70 | 100 | 0 | 0 | – | 5 | – | 20 | 95 | 100 | 100 | – | –
9 | C=CCNC(=O)c1cccc(NC(=O)c2nn(C(C)C)nc2CC)c1 [Compound 382] | 0 | – | 20 | 40 | – | – | – | – | – | – | – | – | – | – | – | – | 0 | –
10 | CCc1nn(C(C)C)nc1C(=O)Nc1cccc(C(=S)N(C)C)c1 [Compound 409] | 40 | – | 80 | 80 | – | – | – | – | – | – | – | – | – | – | – | – | 55 | –
11 | Cc1nn(C(C)(C)C)nc1C(=O)Nc1cccc(C(=S)N(C)C)c1 [Compound 419] | 0 | – | 45 | 65 | – | – | – | – | – | – | – | – | – | – | – | – | 15 | –
12 | CCNC(=S)c1cccc(NC(=O)c2nn(C(C)(C)C)nc2C)c1 [Compound 420] | 0 | – | 20 | 65 | – | – | – | – | – | – | – | – | – | – | – | – | 10 | –
